Measured values from patent US8592406B2, “Transnasal anticonvulsive pharmaceutical composition comprising poorly soluble anticonvulsant” (SK Biopharmaceuticals Co., Ltd., priority 2008, dated 2013).

Key:
[1] = humans, transnasal, Cremophor EL vehicle; cited from earlier work
[2] = Pharmacokinetic test of lorazepam-containing nasal formulation in rabbit (bioavailability test); settings: plasma, other: transnasal, 1.6 mg/kg
Description: Right before this experiment, rabbits (n=3) were weighed, and a mixed solution including 25 mg of ketamine and 4 mg of xylazine was intramuscularly injected to the rabbits per kilogram (Kg) in order to anesthetize the rabbits, and a catheter was fastened to each rabbit to collect blood from rabbits' otic artery. An intravenous injection was performed by administering the mixed solution to the rabbits via the rabbits' otic artery at a dose of 1 mg/kg for approximately 20 seconds. […] Then, each formulation was sprayed to the rabbits using a Pfeiffer nasal spry system.
Blood samples (1 Ml) were collected from the rabbits' otic artery at 0, 2, 5, 10, 20, 30, 45, 60 and 120 minutes after the intravenous injection and transnasal administration of each formulation. Each of the blood samples was centrifuged to separate rabbit plasma, which was stored at −20° C. until is will be used for analysis. In order to analyze the plasma samples, each of the plasma samples (0.5 Ml) was exactly transferred to a 1.5 Ml polypropylene centrifuge tube. […]
In this case, the lorazepam was set to a concentration of 9%, and was administered at a dose of 1.6 mg/kg. […] Each plasma sample pre-treated with acetonitrile was quantified under the following LC/MS/MS conditions. […] The ionization was analyzed in a positive mode using an electrospray ionization (ESI) method, and the ion spray temperature was set to 500° C.

SMILES	Peak concentration versus intravenous administration [1]	bioavailability [2] [%]
CN1C(=O)CN=C(c2ccccc2)c2cc(Cl)ccc21 [diazepam]	lower than that observed after the intravenous administration	–
O=C1Nc2ccc(Cl)cc2C(c2ccccc2Cl)=NC1O (centres unmarked) [lorazepam]	–	35
